The record followed here is PubChem BioAssay AID839 (SRMLSC, 2007).

Each structure is given as a SMILES string. The source made the active and inactive calls. The rule behind the calls is not given here.

This experiment can be described thus: yeast growth inhibition, transport mutant vs wild type, confirmation, post-Golgi transport mutant, OD600 growth rate (AID 839). As to conditions: yeast transport mutant vs control strains, stronger effect = higher value.
[1] abbreviates: measured here: mutant growth inhibition 20 uM, at 20 µM.
Where [2] appears, read: measured here: wild type growth inhibition 20 uM, at 20 µM.
Setting [3] is: measured here: wild type growth inhibition 40 uM, at 40 µM.

With `C=C(C)C1CC=C(CN2CC(C)OC(C)C2)CC1` (stereo unspecified), the growth inhibition is 4.31% (at 40 µM), 11.8% under setting [1], 13.7% under setting [2] and 1.76% under setting [3].
On the same counts, the results for `Clc1cc(Br)ccc1OCCOCCN1CCOCC1` are 8.89%, 8.52%, 2.58% and 3.79%.
`C=C(C)C1CC=C(CN2CCC(C(=O)OCC)CC2)CC1` (stereo unspecified): the growth inhibition is 1.06% (inactive) (at 40 µM), -2.77% under setting [1], 0.148% under setting [2] and 1.89% under setting [3].
On the same counts, the results for `O=C(COc1ccc(Br)cc1F)NC1CCN(Cc2ccccc2)CC1` are 27.4%, 12.6%, 2.81% and 5.41%.
The corresponding values for `CC1CCCN(CCOCCOc2ccc(Cl)cc2Br)C1` (stereo unspecified) are 53.2%, 23.4%, 8.13% and 12.7%.
The corresponding values for `Cc1ccc(Cl)c(OCCCCN(C)Cc2ccccc2)c1` are 72.6%, 31.6%, 11.1% and 22.1%.
For the compound `CC1CN(CC(O)COc2ccc(C(C)C)cc2)CC(C)O1` (stereo unspecified), the growth inhibition is, setting by setting: (at 40 µM) 8.85%; under setting [1], 5.56%; under setting [2], -2.84%; under setting [3], -1.47%.
On the same counts, the results for `CC(C)c1ccc(C(=O)CSc2n[nH]c(-c3ccncc3)n2)cc1` are 12.5%, 7.43%, 4.42% and 13.6%.
The corresponding values for `CCCCCOc1ccc(Cl)cc1CN1CCOCC1` are 17.8%, 26%, 7.83% and -7.6%.
On the same counts, the results for `Cc1ccc(C(=O)c2c(NC(=O)c3ccncc3)sc3c2CCCC3)cc1` are 14.7%, 19.8%, 13.5% and 18.9%.
As to `CC1CN(CCCCOc2ccc(C(C)C)cc2)CC(C)O1` (stereo unspecified), the growth inhibition (at 40 µM) is 26.4%, the growth inhibition under setting [1] was determined as 12.1%, the growth inhibition under setting [2] is 2.42% and the growth inhibition under setting [3] stood at 7.83%.
Turning to `O=C(OCn1ncc(Cl)c(Cl)c1=O)c1ccc(C(F)(F)F)cc1`, the growth inhibition by setting is: (at 40 µM) 46.7%; under setting [1], 50.9%; under setting [2], 13.4%; under setting [3], 16.2%.
As to `CCOC(=O)COc1ccccc1C1Nc2ccccc2C(=O)N1c1cccc(Cl)c1` (stereo unspecified), the growth inhibition reads like this: (at 40 µM) 21.1%; under setting [1], 19.4%; under setting [2], 13%; under setting [3], 24.8%.
On the same counts, the results for `O=C(COc1ccc(Cl)cc1Cl)NCCCN1CCOCC1` are 6.19%, 7.28%, 3.8% and 6.18%.
The corresponding values for `Cc1ccc(CN2CCN(/N=C/c3cc(Br)ccc3O)CC2)cc1` are 21.1%, 18.9%, 7.91% and 7.23%.
The corresponding values for `Cc1ccc(OCC(O)CN2CCN(Cc3ccc4c(c3)OCO4)CC2)c(C)c1` (stereo unspecified) are 33%, 12.9%, 2.63% and 10%.
On to `O=S(=O)(c1ccc(Cl)cc1)N1CCN(C2CCN(Cc3ccccc3)CC2)CC1`, for which the growth inhibition is, setting by setting: (at 40 µM) 10.4%; under setting [1], 7.74%; under setting [2], 0.396%; under setting [3], 3.66%.
Regarding `Cc1cc(C(C)(C)C)ccc1OCCN1CCCC1`, the growth inhibition runs as follows: (at 40 µM) 18.2%; under setting [1], 18.4%; under setting [2], 7.77%; under setting [3], 7.54%.
On the same counts, the results for `N=c1c2c(-c3ccccc3)c(-c3ccccc3)n(Cc3ccco3)c2ncn1Cc1ccccc1` are 38.2%, 8.14%, 9.7% and 12.7%.
The corresponding values for `O=C(C1COc2ccccc2O1)N1CCN(Cc2ccc3c(c2)OCO3)CC1` (stereo unspecified) are 7.29%, 6.43%, -1.59% and 5.57%.
On the same counts, the results for `Clc1ccc(Cn2nnc(-c3ccc(CN4CCOCC4)cc3)n2)cc1` are 26.7%, 11.9%, 8.16% and 12.6%.
For the compound `Cc1nc(NC(=O)c2ccccc2)sc1-c1csc(NCc2ccccc2)n1`, the growth inhibition runs as follows: (at 40 µM) 32.7%; under setting [1], 20%; under setting [2], 6.67%; under setting [3], 15%.
The corresponding values for `CC1CC(C)CN(CCOc2ccc(Cl)cc2Cl)C1` (stereo unspecified) are 46.7%, 30.7%, 8.64% and 14.7%.
On the same counts, the results for `CCCCCCOc1ccc(CN2CCN(CCO)CC2)cc1` are 33.4%, 20.7%, 7.37% and 13.6%.
